From patent publication US11026427B2, “Microbiocidal oxadiazole derivatives” (SYNGENTA PARTICIPATIONS AG, priority 2016, dated 2021)

Legend:
[1] = system: Uromyces viciae-fabae; assay: Uromyces viciae-fabae / field bean / leaf disc preventative (faba-bean rust); assay type: in vivo; details: foliar, 288 h, 100 ppm in the applied formulation, compared to untreated control, read-out: disease control
Description: (§1) Leaf disks or leaf segments of various plant species are cut from plants grown in a greenhouse. The cut leaf disks or segments are placed in multiwell plates (24-well format) onto water agar. The leaf disks are sprayed with a test solution before (preventative) or after (curative) inoculation. Compounds to be tested are prepared as DMSO solutions (max. 10 mg/ml) which are diluted to the appropriate concentration with 0.025% Tween20 just before spraying. The inoculated leaf disks or segments are incubated under defined conditions (temperature, relative humidity, light, etc.) according to the respective test system. A single evaluation of disease level is carried out 3 to 14 days after inoculation, depending on the pathosystem. Percent disease control relative to the untreated check leaf disks or segments is then calculated.
Field bean leaf discs are placed on water agar in multiwell plates (96-well format) and 10 μl of the formulated test compound diluted in acetone and a spreader pipetted onto the leaf disc. Two hours after application leaf discs are inoculated by spraying a spore suspension on the lower leaf surface. The leaf discs are incubated in a climate cabinet at 22° C. with 18 hour day and 70% relative humidity. The activity of a compound is assessed as percent disease control compared to untreated when an appropriate level of disease damage appears in untreated check leaf disks (12 days after application).
The following compounds at 100 ppm in the applied formulation give at least 80% disease control in this test when compared to untreated control leaf discs under the same conditions, which show extensive disease development.

[2] = system: Glomerella lacenarium (Colletotrichum lacenarium); assay: Glomerella lacenarium (Colletotrichum lacenarium) liquid culture / cucumber / preventative (anthracnose); assay type: cell-based; details: 20 ppm in the applied formulation, growth inhibition measured photometrically, compared to untreated control, read-out: disease control
Description: Mycelia fragments or conidia suspensions of a fungus prepared either freshly from liquid cultures of the fungus or from cryogenic storage, are directly mixed into nutrient broth. DMSO solutions of the test compound (max. 10 mg/ml) are diluted with 0.025% Tween20 by a factor of 50 and 10 μl of this solution is pipetted into a microtiter plate (96-well format). The nutrient broth containing the fungal spores/mycelia fragments is then added to give an end concentration of the tested compound. The test plates are incubated in the dark at 24° C. and 96% relative humidity. The inhibition of fungal growth is determined photometrically after 2 to 7 days, depending on the pathosystem, and percent antifungal activity relative to the untreated check is calculated.
Conidia of the fungus from cryogenic storage are directly mixed into nutrient broth (PDB—potato dextrose broth). After placing a (DMSO) solution of test compound into a microtiter plate (96-well format), the nutrient broth containing the fungal spores is added. The test plates are incubated at 24° C. and the inhibition of growth is measured photometrically 3 to 4 days after application.
The following compounds at 20 ppm in the applied formulation give at least 80% disease control in this test when compared to untreated control under the same conditions, which show extensive disease development.

[3] = system: Phakopsora pachyrhizi; assay: Phakopsora pachyrhizi / soybean / leaf disc preventative (Asian soybean rust); assay type: in vivo; details: foliar, 200 ppm in the applied formulation, compared to untreated control, read-out: disease control
Description: as §1
Soybean leaf disks are placed on water agar in multiwell plates (24-well format) and sprayed with the formulated test compound diluted in water. One day after application leaf discs are inoculated by spraying a spore suspension on the lower leaf surface. After an incubation period in a climate cabinet of 24-36 hours in darkness at 20° C. and 75% rh leaf disc are kept at 20° C. with 12 h light/day and 75% rh. The activity of a compound is assessed as percent disease control compared to untreated when an appropriate level of disease damage appears in untreated check leaf disks (12 to 14 days after application).
(§2) The following compounds at 200 ppm in the applied formulation give at least 80% disease control in this test when compared to untreated control leaf disks under the same conditions, which show extensive disease development.

[4] = system: Puccinia recondita f. Sp. tritici; assay: Puccinia recondita f. sp. tritici / wheat / leaf disc preventative (brown rust); assay type: in vivo; details: foliar, 200 ppm in the applied formulation, compared to untreated control, read-out: disease control
Description: as §1, with “calculated. Wheat leaf segments cv. Kanzler were placed on agar in multiwell plates (24-well format) and sprayed with the formulated test compound diluted in water. The leaf disks were inoculated with a spore suspension of the fungus 1 day after application. The inoculated leaf segments were incubated at 19° C. and 75% relative humidity (rh) under a light regime of 12 hours light/12 hours darkness in a climate cabinet and the activity of a compound was assessed as percent disease control compared to untreated when an appropriate level of disease damage appears in untreated check leaf segments (7 to 9 days after application). The following compounds at 200 ppm in the applied formulation give at least 80% disease control in this test when compared to untreated control leaf disks under the same conditions, which show extensive disease development.” for “calculated.”

[5] = system: Puccinia recondita f. Sp. tritici; assay: Puccinia recondita f. sp. tritici / wheat / leaf disc curative (brown rust); assay type: in vivo; details: foliar, 200 ppm in the applied formulation, compared to untreated control, read-out: disease control
Description: as §1
Wheat leaf segments cv. Kanzler are placed on agar in multiwell plates (24-well format). The leaf segments are then inoculated with a spore suspension of the fungus. Plates were stored in darkness at 19° C. and 75% relative humidity. The formulated test compound diluted in water was applied 1 day after inoculation. The leaf segments were incubated at 19° C. and 75% relative humidity under a light regime of 12 hours light/12 hours darkness in a climate cabinet and the activity of a compound was assessed as percent disease control compared to untreated when an appropriate level of disease damage appears in untreated check leaf segments (6 to 8 days after application).
as §2

SMILES	pest or weed control at 100 ppm [1] [%]	inhibition of growth at 20 ppm [2] [%]	pest or weed control at 200 ppm [3] [%]	melting point [°C]	pest or weed control at 200 ppm [4] [%]	pest or weed control at 200 ppm [5] [%]
C/C=C/CC(O)c1ccc(-c2noc(C(F)(F)F)n2)cc1 (stereo not drawn) [Compound 2.9, 1-[4-[5-(trifluoromethyl)-1,2,4-oxadiazol-3-yl]phenyl]pent-3-en-1-ol]	≥ 80	≥ 80	–	–	–	–
O=C(c1ccccc1)c1ccc(-c2noc(C(F)(F)F)n2)cc1 [Compound 1.3, phenyl-[4-[5-(trifluoromethyl)-1,2,4-oxadiazol-3-yl]phenyl]methanone]	≥ 80	≥ 80	≥ 80	110 to 115	–	–
CC(C)CC(=O)c1ccc(-c2noc(C(F)(F)F)n2)cc1 [Compound 1.10, 3-methyl-1-[4-[5-(trifluoromethyl)-1,2,4-oxadiazol-3-yl]phenyl]butan-1-one]	≥ 80	–	≥ 80	–	–	–
C=CCC(=O)c1ccc(-c2noc(C(F)(F)F)n2)cc1 [Compound 1.8, 1-[4-[5-(trifluoromethyl)-1,2,4-oxadiazol-3-yl]phenyl]but-3-en-1-one]	≥ 80	≥ 80	–	65 to 69	–	–
C=C(C)C(O)c1ccc(-c2noc(C(F)(F)F)n2)cc1 (stereo not drawn) [Compound 2.8, 2-methyl-1-[4-[5-(trifluoromethyl)-1,2,4-oxadiazol-3-yl]phenyl]prop-2-en-1-ol]	≥ 80	≥ 80	≥ 80	–	–	–
OC(c1ccc(OC(F)(F)F)cc1)c1ccc(-c2noc(C(F)(F)F)n2)cc1 (stereo not drawn) [Compound 2.5, [4-(trifluoromethoxy)phenyl]-[4-[5-(trifluoromethyl)-1,2,4-oxadiazol-3-yl]phenyl]methanol]	≥ 80	≥ 80	–	90 to 93	–	–
CC(C)(C)C(=O)c1ccc(-c2noc(C(F)(F)F)n2)cc1 [Compound 1.4, 2,2-dimethyl-1-[4-[5-(trifluoromethyl)-1,2,4-oxadiazol-3-yl]phenyl]propan-1-one]	≥ 80	–	–	–	–	–
OC(c1ccc(-c2noc(C(F)(F)F)n2)cc1)C1CC1 (stereo not drawn) [Compound 2.7, cyclopropyl-[4-[5-(trifluoromethyl)-1,2,4-oxadiazol-3-yl]phenyl]methanol]	≥ 80	≥ 80	–	69 to 73	≥ 80	–
C/C=C/CC(=O)c1ccc(-c2noc(C(F)(F)F)n2)cc1 [Compound 1.11, 1-[4-[5-(trifluoromethyl)-1,2,4-oxadiazol-3-yl]phenyl]pent-3-en-1-one]	≥ 80	≥ 80	≥ 80	–	–	–
O=C(c1ccc(OC(F)(F)F)cc1)c1ccc(-c2noc(C(F)(F)F)n2)cc1 [Compound 1.6, [4-(trifluoromethoxy)phenyl]-[4-[5-(trifluoromethyl)-1,2,4-oxadiazol-3-yl]phenyl]methanone]	≥ 80	–	–	104 to 107	–	–
CC(=O)c1ccc(-c2noc(C(F)(F)F)n2)cc1 [Compound 1.2, 1-[4-[5-(trifluoromethyl)-1,2,4-oxadiazol-3-yl]phenyl]ethanone]	≥ 80	–	–	105 to 115	–	–
O=C(c1ccc(-c2noc(C(F)(F)F)n2)cc1)C1CC1 [Compound 1.9, cyclopropyl-[4-[5-(trifluoromethyl)-1,2,4-oxadiazol-3-yl]phenyl]methanone]	≥ 80	≥ 80	–	58 to 62	–	–
CCCCC(O)c1ccc(-c2noc(C(F)(F)F)n2)cc1 (stereo not drawn) [Compound 2.3, 1-[4-[5-(trifluoromethyl)-1,2,4-oxadiazol-3-yl]phenyl]pentan-1-ol]	≥ 80	–	–	–	–	–
O=C(c1ccc(F)cc1)c1ccc(-c2noc(C(F)(F)F)n2)cc1 [Compound 1.1, (4-fluorophenyl)-[4-[5-(trifluoromethyl)-1,2,4-oxadiazol-3-yl]phenyl]methanone]	≥ 80	–	≥ 80	125 to 135	–	–
Cc1ccsc1C(=O)c1ccc(-c2noc(C(F)(F)F)n2)cc1 [Compound 1.12, (3-methyl-2-thienyl)-[4-[5-(trifluoromethyl)-1,2,4-oxadiazol-3-yl]phenyl]methanone]	≥ 80	≥ 80	≥ 80	–	–	–
O=C(c1ccc(-c2noc(C(F)(F)F)n2)cc1)c1nccs1 [Compound 1.24, thiazol-2-yl-[4-[5-(trifluoromethyl)-1,2,4-oxadiazol-3-yl]phenyl]methanone]	–	≥ 80	≥ 80	84 to 90	≥ 80	≥ 80
CC#CC(=O)c1ccc(-c2noc(C(F)(F)F)n2)cc1 [Compound 1.7, 1-[4-[5-(trifluoromethyl)-1,2,4-oxadiazol-3-yl]phenyl]but-2-yn-1-one]	≥ 80	≥ 80	–	84 to 87	≥ 80	–
Cc1ccnc(C(=O)c2ccc(-c3noc(C(F)(F)F)n3)cc2)c1 [Compound 1.27, (4-methyl-2-pyridyl)-[4-[5-(trifluoromethyl)-1,2,4-oxadiazol-3-yl]phenyl]methanone]	–	≥ 80	≥ 80	76 to 81	≥ 80	≥ 80
Cc1ccsc1C(O)c1ccc(-c2noc(C(F)(F)F)n2)cc1 (stereo not drawn) [Compound 2.10, (3-methyl-2-thienyl)-[4-[5-(trifluoromethyl)-1,2,4-oxadiazol-3-yl]phenyl]methanol]	≥ 80	≥ 80	≥ 80	68 to 73	–	–
COc1ccc(C(O)c2ccc(-c3noc(C(F)(F)F)n3)cc2)cc1 (stereo not drawn) [Compound 2.4, (4-methoxyphenyl)-[4-[5-(trifluoromethyl)-1,2,4-oxadiazol-3-yl]phenyl]methanol]	≥ 80	–	≥ 80	67 to 70	–	–
